Results: patent US10537548B2, “Composition and medical product for reducing body weight and body fat, and use of said product” (Caliway Biopharmaceuticals Co., Ltd., priority 2014, dated 2020)

Experiment: Animal Experiment I, drug administration during obesity induction (high-fat diet)
Assay type: in vivo, B6 female mice
Details: oral gavage daily, 8 weeks, compared to obesity control group
Procedure: In this experimental example, 8-week old B6 female mice were experimented and divided into a normal control group, an obesity control group, a resveratrol group (the administered dose of resveratrol was 61.5 mg/kg B.W.), a green tea extract group (the administered dose of green tea extract was 123 mg/kg B.W.), and the plant extract compositions ME001 of the present invention group (the administered dose of ME001 was 676.5 mg/kg B.W.) Five female mice were included in each group for experimentation. During the experimental period, with the exception of the normal control group, the other groups were fed with high-fat diet for eight consecutive weeks to induce obesity symptoms, and were also fed by oral gavage with the test substance daily during the same eight weeks. The obesity control group was fed by oral gavage with an equal volume of sterile water, and the difference in body weight of each group of mice was evaluated. The body weight and average food intake of each animal were recorded weekly during the experimental period. The mice were sacrificed after the experimentation. […] The data of each group are expressed as mean±SD. Letters a, b, and c indicate the results of statistical analysis, wherein different letters indicate significant statistical difference between groups (p<0.05), and identical letters indicate no significant statistical difference between groups (p>0.05).

Compound: Oc1ccc(C=Cc2cc(O)cc(O)c2)cc1 [resveratrol]
- total body weight gain: did not show statistical difference
